Reference: patent US11053225B2, “Pyrimidine derivative compound, optical isomer thereof, or pharmaceutically acceptable salt thereof, and composition for preventing or treating Tyro 3 related disease comprising same as active ingredient” (KOREA RESEARCH INSTITUTE OF CHEMICAL TECHNOLOGY, priority 2017, dated 2021)

The molecules below were run against Mer (Homo sapiens (Human), UniProt Q12866) (assay: Mer kinase inhibition assay (Cisbio method, Eu-labeled antibody to phosphorylated peptide)). Settings: read-out: IC50 (μM) Mer; 1 hour reaction with substrate peptide and ATP.
Chain of Mer (Q12866 21-999): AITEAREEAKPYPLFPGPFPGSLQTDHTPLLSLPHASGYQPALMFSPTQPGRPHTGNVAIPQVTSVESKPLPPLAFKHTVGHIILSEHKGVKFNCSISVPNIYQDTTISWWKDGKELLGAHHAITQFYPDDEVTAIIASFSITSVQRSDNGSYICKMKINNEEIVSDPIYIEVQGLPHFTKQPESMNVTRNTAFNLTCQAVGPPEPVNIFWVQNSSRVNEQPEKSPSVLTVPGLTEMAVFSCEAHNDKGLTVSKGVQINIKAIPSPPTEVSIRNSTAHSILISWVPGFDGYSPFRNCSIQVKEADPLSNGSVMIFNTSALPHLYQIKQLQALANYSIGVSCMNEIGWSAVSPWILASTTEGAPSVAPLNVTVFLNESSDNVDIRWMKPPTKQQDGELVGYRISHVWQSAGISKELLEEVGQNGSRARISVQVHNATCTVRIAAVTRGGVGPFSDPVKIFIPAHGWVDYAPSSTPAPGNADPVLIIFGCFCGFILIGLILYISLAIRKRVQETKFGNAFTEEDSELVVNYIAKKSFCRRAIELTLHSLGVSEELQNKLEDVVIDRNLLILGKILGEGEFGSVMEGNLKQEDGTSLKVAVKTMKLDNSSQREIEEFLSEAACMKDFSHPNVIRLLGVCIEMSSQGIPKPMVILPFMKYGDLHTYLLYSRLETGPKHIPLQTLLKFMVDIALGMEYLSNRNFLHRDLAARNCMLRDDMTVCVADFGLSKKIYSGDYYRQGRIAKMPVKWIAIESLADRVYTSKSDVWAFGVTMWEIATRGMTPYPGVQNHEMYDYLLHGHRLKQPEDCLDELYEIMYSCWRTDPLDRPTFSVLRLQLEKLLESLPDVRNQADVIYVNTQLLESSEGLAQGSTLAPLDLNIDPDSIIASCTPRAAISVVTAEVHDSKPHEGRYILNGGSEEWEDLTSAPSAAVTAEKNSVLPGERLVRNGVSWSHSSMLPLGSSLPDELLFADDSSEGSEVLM
Method: (§1) For evaluation of inhibitory activities of the compounds according to the present invention on Tyro 3, Axl, and Mer, the following test was carried out.
(§2) The specific test method followed the method provided by Cisbio. The compounds of the examples were prepared at various concentrations, followed by addition of Tyro 3, Axl, or Mer and substrate peptides, and then ATP was added to initiate a reaction. After 1 hour, the reaction was stopped by addition of a solution containing EDTA. Thereafter, the amount of phosphorylated peptides was measured. Here, the phosphorylated peptides were treated with an europium (Eu)-labeled antibody recognizing phosphorylated peptides, and then after 1 hour, excited by irradiation of the light of a wavelength of 320 or 340 nm using an Envision Reader.

| IC50 | SMILES |
| --- | --- |
| 0.068 µM | CCOc1cn(-c2ccc(F)cc2C)nc1C(=O)Nc1ccc(Oc2ccnc3cc(OC)c(OC)cc23)c(F)c1 [LDC1267, reference compound] |

Each molecule was assayed against Axl (Homo sapiens (Human), UniProt P30530) (assay: Axl kinase inhibition assay (Cisbio method, Eu-labeled antibody to phosphorylated peptide)). Settings: read-out: IC50 (μM) Axl; 1 hour reaction with substrate peptide and ATP.
Chain of Axl (P30530 26-894): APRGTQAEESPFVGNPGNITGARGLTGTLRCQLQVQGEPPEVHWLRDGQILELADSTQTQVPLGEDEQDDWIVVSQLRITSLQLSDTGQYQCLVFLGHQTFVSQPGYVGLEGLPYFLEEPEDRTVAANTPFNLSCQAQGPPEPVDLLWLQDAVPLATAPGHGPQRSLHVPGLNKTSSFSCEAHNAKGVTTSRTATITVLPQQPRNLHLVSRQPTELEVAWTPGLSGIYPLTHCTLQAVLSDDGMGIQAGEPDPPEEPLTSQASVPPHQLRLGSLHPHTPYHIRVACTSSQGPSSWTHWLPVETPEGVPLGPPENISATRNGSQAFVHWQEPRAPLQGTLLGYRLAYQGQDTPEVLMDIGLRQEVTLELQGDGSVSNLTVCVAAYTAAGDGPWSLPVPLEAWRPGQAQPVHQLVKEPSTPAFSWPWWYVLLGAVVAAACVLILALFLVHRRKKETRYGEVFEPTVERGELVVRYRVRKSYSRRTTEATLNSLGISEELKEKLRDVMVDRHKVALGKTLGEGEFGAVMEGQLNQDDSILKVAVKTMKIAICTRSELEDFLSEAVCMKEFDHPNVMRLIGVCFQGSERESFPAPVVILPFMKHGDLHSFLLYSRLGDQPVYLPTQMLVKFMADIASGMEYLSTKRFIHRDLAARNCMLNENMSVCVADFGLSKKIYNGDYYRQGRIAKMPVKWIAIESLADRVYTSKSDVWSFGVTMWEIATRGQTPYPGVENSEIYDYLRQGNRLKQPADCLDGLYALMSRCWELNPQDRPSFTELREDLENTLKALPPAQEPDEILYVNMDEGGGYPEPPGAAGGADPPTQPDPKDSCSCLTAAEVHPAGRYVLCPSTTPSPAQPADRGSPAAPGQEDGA
Method: as §1, §2

| IC50 | SMILES |
| --- | --- |
| > 10 µM | Cc1ccc(Nc2ncc(-c3ccc(C)cc3)c(NC3CCCCC3)n2)cc1 [Compound 2, N4-cyclohexyl-N2,5-di-(p-tolyl)pyrimidine-2,4-diamine] |
| > 10 µM | Cn1cc(-c2cnc(Nc3ccccc3)nc2NC2CCCCC2)cn1 [Compound 6, N4-cyclohexyl-5-(1-methyl-1H-pyrazol-4-yl)-N2-phenylpyrimidine-2,4-diamine] |
| > 10 µM | COc1ccc(Nc2ncc(-c3cnn(C)c3)c(NC3CCCCC3)n2)cc1Cl [Compound 9, N2-(3-chloro-4-methoxyphenyl)-N4-cyclohexyl-5-(1-methyl-1H-pyrazol-4-yl)pyrimidine-2,4-diamine] |
| > 10 µM | Cc1ccc(Nc2ncc(-c3ccoc3)c(NC3CCCCC3)n2)cc1 [Compound 14, N4-cyclohexyl-5-(furan-3-yl)-N2-(p-tolyl)pyrimidine-2,4-diamine] |
| > 10 µM | Clc1cc(Cl)cc(Nc2ncc(-c3ccoc3)c(NC3CCCCC3)n2)c1 [Compound 15, N4-cyclohexyl-N2-(3,5-dichlorophenyl)-5-(furan-3-yl)pyrimidine-2,4-diamine] |
| > 10 µM | Cn1cc(-c2cnc(NCCc3ccncc3)nc2NC2CCCCC2)cn1 [Compound 17] |
| > 10 µM | Cn1cc(-c2cnc(NC34CC5CC(CC(C5)C3)C4)nc2NC2CCCCC2)cn1 [Compound 23, N4-cyclohexyl-N2-adamantyl-5-(1-methyl-1H-pyrazol-4-yl)pyrimidine-2,4-diamine] |
| > 10 µM | Cc1cc(Nc2ncc(-c3cnn(C)c3)c(NC3CCN(C(=O)C(F)(F)F)CC3)n2)ccc1Cl [Compound 43, 1-(4-(2-(3-methyl-4-chlorophenylamino)-5-(1-methyl-1H-pyrazol-4-yl)pyrimidin-4-ylamino)piperidin-1-yl)-2,2,2-trifluoroethanone] |
| > 10 µM | COc1ccc(Nc2ncc(-c3cnn(C)c3)c(NC3CCN(C(=O)C(F)(F)F)CC3)n2)cc1 [Compound 44, 1-(4-(2-(4-methoxyphenylamino)-5-(1-methyl-1H-pyrazol-4-yl)pyrimidin-4-ylamino)piperidin-1-yl)-2,2,2-trifluoroethanone] |
| > 10 µM | COc1ccc(Nc2ncc(-c3cnn(C)c3)c(NC3CCNCC3)n2)cc1 [Compound 47, N2-(4-methoxyphenyl)-5-(1-methyl-1H-pyrazol-4-yl)-N4-(piperidin-4-yl)pyrimidine-2,4-diamine] |
| > 10 µM | Cc1ccc(Nc2ncc(-c3ccoc3)c(NC3CCN(C(=O)C(F)(F)F)CC3)n2)cc1 [Compound 49, 1-(4-(2-(p-toluidino)-5-(furan-3-yl)pyrimidin-4-ylamino)piperidin-1-yl)-2,2,2-trifluoroethanone] |
| > 10 µM | Cc1cccc(Nc2ncc(-c3ccoc3)c(NC3CCN(C(=O)C(F)(F)F)CC3)n2)c1 [Compound 50, 1-(4-(2-(m-toluidino)-5-(furan-3-yl)pyrimidin-4-ylamino)piperidin-1-yl)-2,2,2-trifluoroethanone] |
| > 10 µM | COc1ccc(Nc2ncc(-c3ccc(OC)c(OC)c3)c(NC3CCN(C(=O)C(F)(F)F)CC3)n2)cc1 [Compound 64, 1-(4-(5-(3,4-dimethoxyphenyl)-2-(4-methoxyphenylamino)pyrimidin-4-ylamino)piperidin-1-yl)-2,2,2-trifluoroethanone] |
| > 10 µM | COc1ccccc1Nc1ncc(-c2ccc(OC)c(OC)c2)c(NC2CCNCC2)n1 [Compound 68, 5-(3,4-dimethoxyphenyl)-N2-(2-methoxyphenyl)-N4-(piperidin-4-yl)pyrimidine-2,4-diamine] |
| > 10 µM | COc1ccc(-c2cnc(Nc3cccc(Cl)c3)nc2NC2CCN(C(=O)C(F)(F)F)CC2)cc1OC [Compound 69, 1-(4-(2-(3-chlorophenylamino)-5-(3,4-dimethoxyphenyl)pyrimidin-4-ylamino)piperidin-1-yl)-2,2,2-trifluoroethanone] |
| > 10 µM | Cn1cc(-c2cnc(Nc3ccc4c(c3)CN(C(=O)C(F)(F)F)CC4)nc2NC2CCN(C(=O)C(F)(F)F)CC2)cn1 [Compound 70, 1-(4-(5-(1-methyl-1H-pyrazol-4-yl)-2-(2-(2,2,2-trifluoroacetyl)-1,2,3,4-tetrahydroisoquinolin-7-ylamino)pyrimidin-4-ylamino)piperidin-1-yl)-2,2,2-trifluoroethanone] |
| > 10 µM | O=C(N1CCC(Nc2nc(Nc3cc(Cl)cc(Cl)c3)ncc2-c2cnn(CCO)c2)CC1)C(F)(F)F [Compound 71, 1-(4-(2-(3,5-dichlorophenylamino)-5-(1-(2-hydroxyethyl)-1H-pyrazol-4-yl)pyrimidin-4-ylamino)piperidin-1-yl)-2,2,2-trifluoroethanone] |
| > 10 µM | Cn1cc(-c2cnc(Nc3ccc4c(c3)CN(C(=O)C(F)(F)F)CC4)nc2N[C@H]2CC[C@@H](NC(=O)C(F)(F)F)CC2)cn1 [Compound 86, N-((1s,4s)-4-(5-(1-methyl-1H-pyrazol-4-yl)-2-(2-(2,2,2-trifluoroacetyl)-1,2,3,4-tetrahydroisoquinolin-7-ylamino)pyrimidin-4-ylamino)cyclohexyl)-2,2,2-trifluoroacetamide] |
| > 10 µM | Cn1cc(-c2cnc(Nc3ccc4c(c3)CNCC4)nc2N[C@H]2CC[C@@H](N)CC2)cn1 [Compound 88, N4-((1s,4s)-4-aminocyclohexyl)-5-(1-methyl-1H-pyrazol-4-yl)-N2-(1,2,3,4-tetrahydroisoquinolin-7-yl)pyrimidin-2,4-diamine] |
| > 10 µM | O=C(NC1CCC(Nc2nc(Nc3cc(Cl)cc(Cl)c3)ncc2-c2cnn(C3CCNCC3)c2)CC1)C(F)(F)F (centres unmarked) [Compound 122, 1-(4-(2-(3,5-dichlorophenylamino)-5-(1-(piperidin-4-yl)-1H-pyrazol-4-yl)pyrimidin-4-ylamino)cyclohexyl)-2,2,2-trifluoroacetamide] |
| > 10 µM | O=C(N1CCc2ccc(Nc3nc(Nc4cc(C(F)(F)F)cc(C(F)(F)F)c4)ncc3-c3cnn(CCO)c3)cc2C1)C(F)(F)F [Compound 124, 1-(7-(2-(3,5-bis(trifluoromethyl)phenylamino)-5-(1-(2-hydroxyethyl)-1H-pyrazol-4-yl)pyrimidin-4-ylamino)-3,4-dihydroisoquinolin-2(1H)-yl)-2,2,2-trifluoroethanone] |
| > 10 µM | O=C(N1CCc2ccc(Nc3nc(Nc4cccc(Cl)c4Cl)ncc3-c3cnn(CCO)c3)cc2C1)C(F)(F)F [Compound 125, 1-(7-(2-(2,3-dichlorophenylamino)-5-(1-(2-hydroxyethyl)-1H-pyrazol-4-yl)pyrimidin-4-ylamino)-3,4-dihydroisoquinolin-2(1H)-yl)-2,2,2-trifluoroethanone] |
| > 10 µM | Cn1cc(-c2cnc(Nc3cc(C(F)(F)F)cc(C(F)(F)F)c3)nc2Nc2ccc3c(c2)CNCC3)cn1 [Compound 136, N2-(3,5-bis(trifluoromethyl)phenyl)-5-(1-methyl-1H-pyrazol-4-yl)-N4-(1,2,3,4-tetrahydroisoquinolin-7-yl)pyrimidine-2,4-diamine] |
| > 10 µM | COc1cc(Nc2ncc(-c3cnn(C)c3)c(Nc3ccc4c(c3)CN(C(=O)C(F)(F)F)CC4)n2)cc(OC)c1 [Compound 138, 1-(7-(2-(3,5-dimethoxyphenylamino)-5-(1-methyl-1H-pyrazol-4-yl)pyrimidin-4-ylamino)-3,4-dihydroisoquinolin-2(1H)-yl)-2,2,2-trifluoroethan-1-one] |

Each molecule was assayed against hERG (Homo sapiens (Human), UniProt Q12809) (assay: human ether-a-go-go-related gene (hERG) assay). Settings: not given.
Chain of hERG (Q12809 whole entry): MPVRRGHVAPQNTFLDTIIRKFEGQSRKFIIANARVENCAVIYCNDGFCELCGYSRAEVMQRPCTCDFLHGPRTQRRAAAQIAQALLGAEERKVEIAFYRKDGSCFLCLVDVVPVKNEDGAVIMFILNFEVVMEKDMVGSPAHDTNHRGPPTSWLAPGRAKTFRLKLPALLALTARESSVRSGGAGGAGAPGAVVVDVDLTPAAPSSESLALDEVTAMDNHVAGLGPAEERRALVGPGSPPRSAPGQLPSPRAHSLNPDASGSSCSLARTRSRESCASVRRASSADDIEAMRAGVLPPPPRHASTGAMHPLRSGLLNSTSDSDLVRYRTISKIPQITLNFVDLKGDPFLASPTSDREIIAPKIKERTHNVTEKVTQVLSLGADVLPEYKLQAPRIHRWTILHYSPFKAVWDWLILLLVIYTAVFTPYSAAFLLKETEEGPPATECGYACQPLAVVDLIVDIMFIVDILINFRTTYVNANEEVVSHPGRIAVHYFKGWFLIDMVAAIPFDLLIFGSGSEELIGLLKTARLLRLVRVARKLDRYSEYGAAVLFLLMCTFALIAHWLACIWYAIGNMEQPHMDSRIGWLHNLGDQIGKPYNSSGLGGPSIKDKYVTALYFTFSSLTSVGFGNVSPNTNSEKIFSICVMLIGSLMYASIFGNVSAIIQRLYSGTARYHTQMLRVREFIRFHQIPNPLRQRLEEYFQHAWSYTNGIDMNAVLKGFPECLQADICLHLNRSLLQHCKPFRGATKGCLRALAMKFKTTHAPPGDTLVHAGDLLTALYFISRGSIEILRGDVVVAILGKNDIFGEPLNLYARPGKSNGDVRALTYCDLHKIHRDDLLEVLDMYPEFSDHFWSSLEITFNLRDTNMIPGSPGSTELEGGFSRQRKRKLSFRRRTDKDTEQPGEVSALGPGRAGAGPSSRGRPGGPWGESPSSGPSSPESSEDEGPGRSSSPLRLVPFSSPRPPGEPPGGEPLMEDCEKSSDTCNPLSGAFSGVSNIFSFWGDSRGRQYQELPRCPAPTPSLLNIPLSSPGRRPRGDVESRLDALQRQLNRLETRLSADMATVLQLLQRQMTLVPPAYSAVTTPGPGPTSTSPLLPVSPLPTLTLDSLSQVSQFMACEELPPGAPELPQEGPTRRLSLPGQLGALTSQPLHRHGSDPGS
Method: In the development of medicines, drug toxicity as well as therapeutic effects plays an important role. One of the most commonly used criteria for determining drug toxicity is human ether-a-go-go-related gene (hERG) toxicity. Most pharmaceutical companies determine a drug showing a hERG IC50 value of less than 0.1 μM to be highly toxic, and thus stop the development of the drug. Whereas, the companies determine a drug showing a hERG IC50 value of 10 μM or more to be non-toxic.
For investigation of the degree of drug toxicity by TAM receptor inhibiting compounds of the present invention, human ether-a-go-go-related gene (hERG) assay was performed on Compounds 29, 60, 73, 75, 84, 89, and 132 on Table 4.

| SMILES | IC50 |
| --- | --- |
| Cn1cc(-c2cnc(Nc3cc(Cl)cc(Cl)c3)nc2NC2CCNCC2)cn1 [Compound 29, N2-(3,5-dichlorophenyl)-5-(1-methyl-1H-pyrazol-4-yl)-N4-(piperidin-4-yl)pyrimidine-2,4-diamine] | ≤ 1 µM |
| COc1cccc(-c2cnc(Nc3cc(Cl)cc(Cl)c3)nc2NC2CCNCC2)c1 [Compound 60, N2-(3,5-dichlorophenyl)-5-(3-methoxyphenyl)-N4-(piperidin-4-yl)pyrimidine-2,4-diamine] | ≤ 1 µM |
| Clc1cc(Cl)cc(Nc2ncc(-c3cnn(C4CCNCC4)c3)c(NC3CCNCC3)n2)c1 [Compound 73, N2-(3,5-dichlorophenyl)-N4-(piperidin-4-yl)-5-(1-(piperidin-4-yl)-1H-pyrazol-4-yl)pyrimidine-2,4-diamine] | ≥ 50 µM |
| OCCn1cc(-c2cnc(Nc3cc(Cl)cc(Cl)c3)nc2NC2CCNCC2)cn1 [Compound 75, 2-(4-(2-(3,5-dichlorophenylamino)-4-(piperidin-4-ylamino)pyrimidin-5-yl)-1H-pyrazol-1-yl)ethanol] | ≥ 50 µM |

Same assay, conditions: result in words

| SMILES | hERG toxicity |
| --- | --- |
| Cn1cc(-c2cnc(Nc3cc(Cl)cc(Cl)c3)nc2Nc2ccc3c(c2)CNCC3)cn1 [Compound 84, N2-(3,5-dichlorophenyl)-5-(1-methyl-1H-pyrazol-4-yl)-N4-(1,2,3,4-tetrahydroisoquinolin-7-yl)pyrimidine-2,4-diamine] | no hERG toxicity |
| OCCn1cc(-c2cnc(Nc3cc(Cl)cc(Cl)c3)nc2Nc2ccc3c(c2)CNCC3)cn1 [Compound 89, 2-(4-(2-(3,5-dichlorophenylamino)-4-(1,2,3,4-tetrahydroisoquinolin-7-ylamino)pyrimidin-5-yl)-1H-pyrazol-1-yl)ethanol] | no hERG toxicity |
| Clc1cc(Cl)cc(Nc2ncc(-c3cnn(C4CCNCC4)c3)c(Nc3ccc4c(c3)CNCC4)n2)c1 [Compound 132, N2-(3,5-dichlorophenyl)-5-(1-(piperidin-4-yl)-1H-pyrazol-4-yl)-N4-(1,2,3,4-tetrahydroisoquinolin-7-yl)pyrimidine-2,4-diamine] | no hERG toxicity |
